Experimental findings from patent US5856574A, “Ortho-subsituted benzoylguanidines, process for their preparation, their use as a medicament or diagnostic, and medicament containing them” (Hoechst Aktiengesellschaft, priority 1996, dated 1999) are described below.

A word on the IC50: it is the concentration that gives 50% inhibition. As a reminder, the half-life is the time in which the quantity being followed falls by half. Lower therefore signals rapid decline.

Counter-ions that a name gives are not always drawn.

Data set [1] deals with T1, rabbit erythrocyte Na^+ /H^+ exchanger (Oryctolagus cuniculus, UniProt P23791).
T1 construct: determine the Na+influx into the erythrocytes by way of Na^+ /H^+ exchange; endogenous in cells; host or cells: intact erythrocytes in heparinised blood of cholesterol-fed New Zealand White rabbits
The data set can be described thus: Inhibition of the rabbit erythrocyte Na^+ /H^+ exchanger (amiloride-sensitive sodium influx, flame photometry). Type of data set: cell-based, rabbit (New Zealand White). As to conditions: rabbit erythrocytes, cholesterol-fed, 37° C., pH 7.4. From the text:
Inhibition of the rabbit erythrocyte Na^+ /H^+ exchanger
New Zealand White rabbits (Ivanovas) were given a standard diet containing 2% cholesterol for six weeks in order to activate Na^+ /H^+ exchange and thereby making it possible to use flame photometry to determine the Na+influx into the erythrocytes by way of Na^+ /H^+ exchange. The blood was withdrawn from the aural arteries and rendered incoagulable by adding 25 IU of potassium heparin. A part of each sample was used for determining the hematocrit in duplicate by means of centrifugation. Aliquots of in each case 100 μl were used for measuring the initial content of Na^+ in the erythrocytes.
In order to determine the amiloride-sensitive sodium influx, 100 μl of each blood sample were in each case incubated, at 37° C. and pH 7.4, in 5 ml of a hyper osmolar salt/sucrose medium (mmol/l: 140 NaCl, 3 KCL, 150 sucrose, 0.1 ouabain, 20 tris(hydroxymethyl)aminomethane). After that, the erythrocytes were washed three times with an ice-cold MgCl2 /ouabain solution (mmol/l: 112 MgCl2, 0.1 ouabain) and hemolyzed in 2.0 ml of distilled water. The intracellular content of sodium was determined by flame photometry.
The net Na^+ influx was calculated from the difference between the initial sodium values and the sodium content of the erythrocytes after incubation. The amiloride-inhibitable sodium influx was obtained from the difference in the sodium content of the erythrocytes after incubating them with and without […] amiloride. This procedure was also used in the case of the novel compounds.

The nature of data set [2]: Intraduodenal bioavailability. The format is in vivo.
A short description of data set [3]: Plasma elimination half life, dog, i.v. Type of data set: in vivo. The note with it: iv.
Data set [4] can be described thus: Plasma elimination half life, rat, i.v. The format is in vivo. As to conditions: iv.

T1 sequence (P23791 whole entry): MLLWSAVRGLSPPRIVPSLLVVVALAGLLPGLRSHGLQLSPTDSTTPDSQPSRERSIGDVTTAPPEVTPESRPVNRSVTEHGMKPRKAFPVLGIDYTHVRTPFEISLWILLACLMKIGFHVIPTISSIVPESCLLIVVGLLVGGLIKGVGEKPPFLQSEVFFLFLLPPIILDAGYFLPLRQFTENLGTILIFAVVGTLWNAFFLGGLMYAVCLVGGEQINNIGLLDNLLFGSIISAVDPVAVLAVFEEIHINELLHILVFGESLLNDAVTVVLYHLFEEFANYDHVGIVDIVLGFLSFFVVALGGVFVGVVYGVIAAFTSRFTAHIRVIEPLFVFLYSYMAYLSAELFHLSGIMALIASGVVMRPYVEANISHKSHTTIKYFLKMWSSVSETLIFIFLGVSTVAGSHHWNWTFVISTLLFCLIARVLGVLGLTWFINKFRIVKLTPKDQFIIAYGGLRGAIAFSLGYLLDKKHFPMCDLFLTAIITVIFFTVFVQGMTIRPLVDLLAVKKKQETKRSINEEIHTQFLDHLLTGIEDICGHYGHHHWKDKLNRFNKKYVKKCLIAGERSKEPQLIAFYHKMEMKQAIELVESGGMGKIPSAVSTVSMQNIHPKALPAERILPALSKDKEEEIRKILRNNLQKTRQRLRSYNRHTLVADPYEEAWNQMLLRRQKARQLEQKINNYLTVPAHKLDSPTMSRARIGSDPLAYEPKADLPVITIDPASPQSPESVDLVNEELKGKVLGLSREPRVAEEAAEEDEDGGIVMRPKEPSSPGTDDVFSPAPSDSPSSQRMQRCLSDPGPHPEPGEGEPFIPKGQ

In data set [1], `CCCc1cc(Cl)c(C(=O)N=C(N)N)cc1C(F)(F)F` [Example 8, 2-Chloro4-n-propyl-5-trifluoromethylbenzoylguanidine hydrochloride] yielded an IC50 of 10 nM.

In the case of `COc1cc(Cl)c(C(=O)N=C(N)N)cc1C(F)(F)F` [Example 1, 2-Chloro4-methoxy-5-trifluoromethylbenzoylguanidine hydrochloride], the Intraduodenal bioavailability entry in data set [2] is “good”. For the same compound, the half-life in data set [3] is 66 min; in data set [4], 19.2 min. This compound also had an IC50 in data set [1] of 20 nM.

Compound `NC(N)=NC(=O)c1cc(C(F)(F)F)cc(I)c1Cl` [Example 2, 2-Chloro-3-iodo-5-trifluoromethylbenzoylguanidine hydrochloride] yielded an IC50 in data set [1] of 50 nM.

`NC(N)=NC(=O)c1cc(C(F)(F)F)c(C2CCCC2)cc1Cl` [Example 7, 2-Chloro4-cyclopentyl-5-trifluoromethylbenzoylguanidine hydrochloride] registered an IC50 in data set [1] of 30 nM.

As for `CC(C)c1cc(C(F)(F)F)cc(C(=O)N=C(N)N)c1Cl` [Example 5, 2-Chloro-3-isopropyl-5-trifluoromethylbenzoylguanidine hydrochloride], the Intraduodenal bioavailability result in data set [2] is on record as “good”. In addition, in data set [4], the half-life was 42 min. Besides, the half-maximal inhibitory concentration (IC50) in data set [1] was determined as 20 nM.

In data set [1], `NC(N)=NC(=O)c1cc(C(F)(F)F)cc(C2CCCC2)c1Cl` [Example 6, 2-Chloro-3-cyclopentyl-5-trifluoromethylbenzoylguanidine hydrochloride] had an IC50 of 60 nM.

With `CCCc1cc(C(F)(F)F)cc(C(=O)N=C(N)N)c1Cl` [Example 4, 2-Chloro-3-n-propyl-5-trifluoromethylbenzoylguanidine hydrochloride], the IC50 in data set [1] stood at 70 nM.
